Residue numbers refer to the chain shown, from its start.
How the values were obtained:
Type in all cases: binding
[1] = target: T1, DmCRY (Drosophila melanogaster, UniProt O77059, R237E/R298E); assay: UV-visible absorption of purified protein ([…] nm), FAD occupancy; conditions: co-purified FAD
T1 construct: gene cry

[2] = target: T2, DmCRY (Drosophila melanogaster, UniProt O77059, R298E/Q311E); assay: as above; conditions: co-purified FAD
T2 construct: gene cry

[3] = target: T3, SbCRY1a (Sylvia borin, UniProt Q6ZZY0); assay: UV-visible absorption titration of apo-protein into constant FAD, global fit
T3 construct: gene CRY1; full length 1-620, 36-aa N-terminal 6xHis extension (pRSET-A), E. coli SoluBL21, apo-protein
T3 sequence (Q6ZZY0 1-620): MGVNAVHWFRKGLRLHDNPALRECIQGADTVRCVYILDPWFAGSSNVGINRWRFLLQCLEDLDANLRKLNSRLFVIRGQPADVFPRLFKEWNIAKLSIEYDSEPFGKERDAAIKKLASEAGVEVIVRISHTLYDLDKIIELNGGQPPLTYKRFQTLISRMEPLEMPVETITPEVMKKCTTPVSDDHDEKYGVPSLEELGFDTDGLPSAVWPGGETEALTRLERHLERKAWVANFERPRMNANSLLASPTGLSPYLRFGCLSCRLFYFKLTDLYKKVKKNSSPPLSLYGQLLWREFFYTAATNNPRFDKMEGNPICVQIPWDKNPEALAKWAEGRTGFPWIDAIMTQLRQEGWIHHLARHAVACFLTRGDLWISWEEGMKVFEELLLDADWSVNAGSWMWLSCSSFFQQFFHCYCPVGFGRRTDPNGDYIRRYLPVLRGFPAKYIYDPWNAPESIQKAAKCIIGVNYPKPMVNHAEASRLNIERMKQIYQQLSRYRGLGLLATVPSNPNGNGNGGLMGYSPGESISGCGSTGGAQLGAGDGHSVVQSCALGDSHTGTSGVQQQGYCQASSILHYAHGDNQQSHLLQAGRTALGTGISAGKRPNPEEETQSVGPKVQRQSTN

[4] = target: T4, DmCRY (Drosophila melanogaster, UniProt O77059, Q311E); assay: UV-visible absorption of purified protein ([…] nm), FAD occupancy; conditions: co-purified FAD
T4 construct: gene cry
T4 sequence (O77059 1-539 Q311E): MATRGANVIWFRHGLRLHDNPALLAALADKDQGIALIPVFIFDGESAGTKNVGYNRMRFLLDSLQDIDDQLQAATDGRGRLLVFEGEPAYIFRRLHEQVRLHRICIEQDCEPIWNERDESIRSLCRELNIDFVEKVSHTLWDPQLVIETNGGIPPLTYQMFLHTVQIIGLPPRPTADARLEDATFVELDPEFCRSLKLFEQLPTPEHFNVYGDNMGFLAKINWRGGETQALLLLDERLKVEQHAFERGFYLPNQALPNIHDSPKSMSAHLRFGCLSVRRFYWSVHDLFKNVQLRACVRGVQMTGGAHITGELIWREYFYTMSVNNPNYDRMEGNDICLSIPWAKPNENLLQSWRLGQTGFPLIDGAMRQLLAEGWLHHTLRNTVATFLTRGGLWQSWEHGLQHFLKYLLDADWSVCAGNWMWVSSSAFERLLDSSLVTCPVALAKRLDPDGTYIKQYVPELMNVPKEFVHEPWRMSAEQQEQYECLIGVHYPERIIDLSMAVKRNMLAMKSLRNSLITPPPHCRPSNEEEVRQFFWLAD

[5] = target: T5, HsCRY2 (Homo sapiens, UniProt Q49AN0); assay: UV-visible absorption titration of apo-protein into constant FAD, global fit
T5 construct: gene CRY2; full length 1-593, 39-aa N-terminal 6xHis extension (pRSET-A), E. coli SoluBL21, apo-protein
T5 sequence (Q49AN0 1-593): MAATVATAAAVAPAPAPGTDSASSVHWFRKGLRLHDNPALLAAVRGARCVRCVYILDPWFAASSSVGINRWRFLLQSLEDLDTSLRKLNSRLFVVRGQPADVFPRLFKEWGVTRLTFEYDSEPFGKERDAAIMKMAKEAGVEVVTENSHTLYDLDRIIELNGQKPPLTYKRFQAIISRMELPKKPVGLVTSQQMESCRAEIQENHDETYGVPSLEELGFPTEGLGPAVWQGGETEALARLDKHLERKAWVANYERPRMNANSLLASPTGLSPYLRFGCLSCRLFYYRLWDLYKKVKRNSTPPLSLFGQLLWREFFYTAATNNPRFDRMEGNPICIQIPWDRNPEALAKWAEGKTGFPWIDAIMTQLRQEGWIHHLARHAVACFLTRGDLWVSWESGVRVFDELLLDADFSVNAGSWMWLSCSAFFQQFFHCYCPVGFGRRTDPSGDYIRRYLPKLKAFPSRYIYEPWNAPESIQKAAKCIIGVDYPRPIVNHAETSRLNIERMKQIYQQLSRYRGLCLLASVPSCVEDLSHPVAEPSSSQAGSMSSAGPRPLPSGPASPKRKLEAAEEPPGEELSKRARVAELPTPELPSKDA

[6] = target: T6, DmCRY (Drosophila melanogaster, UniProt O77059, R237E); assay: UV-visible absorption of purified protein ([…] nm), FAD occupancy; conditions: co-purified FAD
T6 construct: gene cry
T6 sequence (O77059 1-539 R237E): as the sequence (O77059 1-539 Q311E) above, with R237E, E311Q counted along it

[7] = target: T7, HsCRY2 (Homo sapiens, UniProt Q49AN0, H243R/S415N); assay: UV-visible absorption after incubation in excess FAD and spin filtration; conditions: occupancy after incubation in excess FAD and removal of free FAD
T7 construct: gene CRY2; full length 1-593, 39-aa N-terminal 6xHis extension (pRSET-A), E. coli SoluBL21, apo-protein
T7 sequence (Q49AN0 1-593 H243R/S415N): T5 sequence (Q49AN0 1-593) with H243R, S415N

[8] = target: T8, HsCRY1 (Homo sapiens, UniProt Q16526); assay: UV-visible absorption titration of apo-protein into constant FAD, global fit
T8 construct: gene CRY1; full length 1-586, 39-aa N-terminal 6xHis extension (pRSET-A), E. coli SoluBL21, apo-protein
T8 sequence (Q16526 1-586): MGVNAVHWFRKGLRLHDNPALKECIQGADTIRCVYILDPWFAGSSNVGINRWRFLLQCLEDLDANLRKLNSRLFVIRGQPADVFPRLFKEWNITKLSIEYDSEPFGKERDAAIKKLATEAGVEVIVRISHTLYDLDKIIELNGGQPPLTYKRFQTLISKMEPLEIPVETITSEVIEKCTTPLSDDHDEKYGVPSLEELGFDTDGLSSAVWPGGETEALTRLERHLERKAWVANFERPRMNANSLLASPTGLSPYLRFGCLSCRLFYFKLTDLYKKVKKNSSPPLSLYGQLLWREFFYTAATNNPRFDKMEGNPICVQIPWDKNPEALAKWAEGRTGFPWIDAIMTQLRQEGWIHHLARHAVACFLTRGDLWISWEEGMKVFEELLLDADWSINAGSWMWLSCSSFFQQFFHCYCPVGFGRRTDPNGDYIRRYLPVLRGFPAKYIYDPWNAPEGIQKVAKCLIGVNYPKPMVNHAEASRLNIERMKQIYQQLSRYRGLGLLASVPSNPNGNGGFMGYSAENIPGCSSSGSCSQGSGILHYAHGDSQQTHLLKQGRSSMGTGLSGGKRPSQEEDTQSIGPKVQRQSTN

[9] = target: T9, DmCRY (Drosophila melanogaster, UniProt O77059, N419S); assay: UV-visible absorption of purified protein ([…] nm), FAD occupancy; conditions: co-purified FAD
T9 construct: gene cry
T9 sequence (O77059 1-539 N419S): as the sequence (O77059 1-539 Q311E) above, with E311Q, N419S counted along it

[10] = target: T10, DmCRY (Drosophila melanogaster, UniProt O77059, R298E); assay: as above; conditions: co-purified FAD
T10 construct: gene cry
T10 sequence (O77059 1-539 R298E): as the sequence (O77059 1-539 Q311E) above, with R298E, E311Q counted along it

[11] = target: T11, DmCRY (Drosophila melanogaster, UniProt O77059, R237H); assay: as above; conditions: co-purified FAD
T11 construct: gene cry
T11 sequence (O77059 1-539 R237H): as the sequence (O77059 1-539 Q311E) above, with R237H, E311Q counted along it

[12] = target: T12, DmCRY (Drosophila melanogaster, UniProt O77059); assay: UV-visible absorption and visible CD of purified protein; conditions: co-purified oxidized FAD; near-stoichiometric
T12 construct: gene cry
T12 sequence (O77059 1-539): as the sequence (O77059 1-539 Q311E) above, with E311Q counted along it

T2 sequence (O77059 1-539 R298E/Q311E): as the sequence (O77059 1-539 Q311E) above, with R298E counted along it
T1 sequence (O77059 1-539 R237E/R298E): as the sequence (O77059 1-539 Q311E) above, with R237E, R298E, E311Q counted along it

% reduction of FAD occupancy [1]: ~ 16%
% reduction of FAD occupancy [2]: ~ 58%
Kd [3]: 97 µM
Kd [5]: 68 µM
% reduction of FAD occupancy [6]: ~ 12%
% bound FAD [7]: ~ 30%
Kd [8]: 16 µM
Structure (SMILES): Cc1cc2nc3c(=O)[nH]c(=O)nc-3n(C[C@H](O)[C@H](O)[C@H](O)COP(=O)(O)OP(=O)(O)OC[C@H]3O[C@@H](n4cnc5c(N)ncnc54)[C@H](O)[C@@H]3O)c2cc1C [FAD]
FAD occupancy [4]: single point mutations only had a minimal impact on FAD occupancy
FAD occupancy [9]: single point mutations only had a minimal impact on FAD occupancy
FAD occupancy [10]: single point mutations only had a minimal impact on FAD occupancy
FAD occupancy [11]: single point mutations only had a minimal impact on FAD occupancy
UV-visible absorption and visible CD of purified protein [12]: UV-visible absorption spectrum of DmCRY shows near-stoichiometric binding of oxidized FAD
